These results are taken from patent US5998366A, “Method for ameliorating glutamic acid decarboxylase associated autoimmune disorders” (The Regents of the University of California, priority 1997, dated 1999).

The test system of assay [1] is female NOD mice. The experiment in a line: Insulitis score after tolerance induction. In kind it is in vivo. As to conditions: examined at 12 weeks. How it is done:
(§1) 1. In these experiments female NOD mice were intravenously injected at 3 weeks of age with 50 μg GAD, μ-galactosidase, mycobacterial hsp65 (m-hsp) or 0.1 μg of the immunodominant hsp peptide (hsp-p), in PBS. At 12 weeks of age, mice were examined for insulitis and autoantigen reactive T-cells. At this age both indications are established in untreated NOD mice. Pancreatic tissue sections were stained by immunoperoxidase techniques for insulin and were counterstained with hematoxylin. Insulitis was scored in a blinded manner by examining 54 to 87 islets on 5 interrupted tissue sections from each pancreas. Proliferative splenic T-cell responses induced by various antigens were performed as described above in Example 4. Data in Table 8 are expressed as the average [^3 H]-thymidine label (cpm) incorporated in triplicate cultures.
2. In a second set of experiments neonatal female NOD mice were injected intraperitoneally IFA with peptide 11, a mixture of peptides 34 and 35 plus IFA, or with IFA alone and at 12 weeks of age the mice were examined for insulitis and autoantigen reactive T-cells as in Example 6.1. Proliferative splenic T-cell responses induced by the various antigens were performed as in Example 4, and data in Table 8B are expressed as the average [^3 H]-thymidine label (cpm) incorporated in triplicate cultures.
3. In a third set of experiments female NOD mice were intravenously injected at three weeks of age with peptide 11 (control), a mixture of peptides 34 and 35 plus IFA, or with HEL peptides and at 12 weeks of age the mice were examined for insulitis and autoantigen reactive T-cells as in Example 6.1. Proliferative splenic T-cell responses induced by the various antigens were performed as in Example 4, and data in Table 8C are expressed as the average [^3 H]-thymidine label (cpm) incorporated in triplicate cultures.

Assay [2] deals with female NOD mice. Description: Long-term diabetes incidence, insulitis and βCA reactive T cells after GAD tolerization. In kind it is in vivo. The protocol:
as §1
Five GAD treated mice were sacrificed at 30 weeks of age.

The subject of assay [3] is spleen cells of 6-9 week old NOD mice. The experiment in a line: IFNγ ELISA and ELISA spot of spleen cells challenged with antigen. In kind it is cell-based. The protocol: In one series of experiments γ interferon (IFNγ) was measured by ELISA in culture supernatants (CSN) of spleen cells of 6-9 week old mice after challenge with GAD or control antigens HEL and MBP. Additionally, the frequency of antigen specific, IFNγ-producing cells was determined by an ELISA spot technique (T. Taguchi, et al., J. Immunol., 145:68-77, 1990). Frequency of antigen-induced, spot forming cells (SFC) among 10^3 spleen cells is represented in FIG. 9(a). Values are the mean+SEM from 5 individual female NOD mice, each tested in triplicate cultures with or without antigen. Results from a single experiment are shown. These are representative of 3 separate experiments.
In performing these experiments, freshly isolated spleen cells were cultured with or without antigen as described in Example 4. CSN were taken after 48 h and the concentration of IFNγ was determined by ELISA (Macy, et al., FASEB J., 3003-3009, 1988). IFNγ specific monoclonal antibody (mAb) R4-6A2 (Pharmingen) was used as the capturing reagent and biotinylated mAb XMG 1.2 (Pharmingen, also specific for IFNγ) was used in conjunction with streptavidin-alkaline phosphatase (Zymed) and […] for detection of bound lymphokine. […] Spots were counted visually and the frequency of antigen specific cells was determined from the difference between the number of spots seen with and without antigen.
On the technique in general: An ELISA detects its analyte on a solid surface through an enzyme-linked reagent.

Assay [4] relates to female NOD mice. The experiment in a line: GAD immunization of 8 week old NOD mice, onset of IDDM. In kind it is in vivo. The source says: An IPTG inducible T7 expression vector was used to express both human GAD65 and E. coli b galactosidase (β-gal). In IPTG induced recombinant E. coli, GAD and β-gal constitute about 10-20% of the total bacterial protein. However, almost all of the GAD was in inclusion bodies, which could be isolated and extensively washed to obtain material that is about 80% GAD. We then did affinity purifications of GAD and β-gal on the basis of a hexa-histidine "tag" which was attached to GAD during the subcloning process. These extra histidine residues allow the rapid affinity purification (Novagen) of GAD by metal affinity chromatography (Hochuli, et al., Bio Technology, 6:1321-1325, 1988). The inclusion body material is solubilized in 6M guanidine hydrochloride (GHCL), 10 mm β-mercaptoethanol and 1% triton X-100. After binding to the column, the column was extensively washed with GHCL and 8M urea in phosphate buffers. Only the central peak GAD fraction was utilized for subsequent studies. Human GAD65 shares 96% amino acid sequence identity with murine GAD65, with most of the amino acid differences being conservative substitutions.
Breeder mice were purchased from Taconic Farms and housed under specific pathogen-free conditions. Only female NOD mice were used in this study. The average age of IDDM onset in unrelated females in the colony was 22 weeks. Insulitis is generally observed beginning at 4 weeks of age. T cell responses to GAD, HSP, CPH were found by 6 weeks in age. The incidence of IDDM in female mice is 70-90% by one year of age.
At 8 weeks of age, 25 ug GAD or control β-gal. was injected intraperftoneally (ip) in 100 ul of incomplete Freunds adjuvant (IFA). Because there may be a requirement for continual antigen presentation (Ramsdell, et al., Science, 257:1130-1133, 1992) mice were treated again every 6 weeks. Urine glucose levels were monitored twice weekly. After observing above normal glucose in urea, blood glucose levels were monitored twice weekly. Two consecutive blood glucose level readings of […] was considered as IDDM onset, after which the mice were sacrificed and spleen cells were tested as described above in Example 6 for evidence of spleen cell proliferation.

Where [5] appears, read: five treated mice sacrificed at 30 weeks.

In the case of “GAD: human GAD65 purified from recombinant bacteria on the basis of a hexahistidine tag”, the “Insulitis Score” value in assay [1] (Table 8A: i.v. injection at 3 weeks of age in PBS, scale 0-4, mean ± SE) came out at 0.1 ± 0.1. Further, the “insulitis score of the completely tolerized mice” value in assay [1] (i.v. at 3 weeks) came out at 0.0. Moreover, in assay [2] (setting [5]), the “insulitis at 30 weeks of age” value is “four mice were completely free of insulitis” and the “βCA reactive T cells at 30 weeks of age” value is “free of detectable βCA reactive T cells”. Moreover, the “glucose levels of treated mice” value in assay [2] (n=17, presently 37 weeks old) is recorded as “normal glucose levels”. For the same substance, the “IFNγ in culture supernatants after antigen challenge” value in assay [3] (48 h, ELISA) is reported as “high concentrations of IFNγ”. Besides, the “frequency of antigen-reactive (IFNγ spot forming) T-cells in the spleen” value in assay [3] (ELISA spot) is given as 90-291 cells per 10^5 cells. Besides, the “age until which 8 of the immunized mice showed no signs of hyperglycemia” value in assay [4] (25 ug ip in IFA at 8 weeks, again every 6 weeks) worked out at 36 weeks. For the same substance, in assay [4] (25 ug ip in IFA at 8 weeks, again every 6 weeks, 10 mice per group), the “treated mice remaining disease free at 52 weeks of age” value is “Four”. In addition, in assay [4] (versus β-gal immunized mice), the “significance of the delay or prevention of diabetes” value is reported as less than 0.02.
